Columns and labels:
[1] = Estrogenic, androgenic, anti-estrogenic and anti-androgenic activities
[2] = tested on: pre-menopausal adult women diagnosed with endometriosis; assay: Six month endometriosis study: pain diaries and pain intensity surveys; assay type: in vivo, human; conditions: for pain free days, percent: 180 day treatment period
Experimental: Pain reduction also occurred more rapidly than with the active control, Lucrin®. The response of pain to treatment in this study was analyzed in two ways. Patients in the study maintained daily pain diaries to record the severity and frequency of pain. In addition, at each office visit, patients filled out endometriosis symptom surveys that included a questionnaire that evaluated intensity of pain on a bad day on a scale of 0-10 with 10 being the greatest intensity. […] This decrease in duration of pain was statistically better (p=0.0012) than the 117.8 (74%; standard deviation 51.4 days) pain free days achieved with Lucrin n. […] Patients on CDB-4124 12.5 mg and 25 mg doses had 115.9 (66%; standard deviation 69.2 days) and 133.6 (75%; standard deviation 27.4 days) pain free days, respectively. […] The 25 mg and 12.5 mg doses of CDB-4124 were not statistically different from Lucrin®. […] The intensity of pain was asked by the question: “On a scale of 1-10, with 0 being no pain and 10 being extreme pain, how intense was your pain on a bad day?” The mean scores for intensity of pain at baseline were 6.3 for the CDB-4124 groups and 6.1 for the Lucrin® group. […] At month three all four active treatment groups had satistically significant reduction in pain compared with baseline, with the following scores: 3.7 (p=0.03) for 12.5 mg CDB-4124, 3.2 (p=0.03) for 25 mg CDB-4124, 1.6 (p=0.015) for 50 mg CDB-4124 and 1.5 (p=0.016) for Lucrin®. These dose related reductions continued until month six when the values for pain intensity were 2.0 (p=0.008), 2.8 (p=0.023), 0.6 (p=0.004) and 0.7 (p=0.016), respectively. Two months after stopping treatment pain returned and was of similar intensity in all four treatment groups.

COCC(=O)[C@@]1(OC(C)=O)CC[C@H]2[C@@H]3CCC4=CC(=O)CCC4=C3[C@@H](c3ccc(N(C)C)cc3)C[C@@]21C [CDB-4124, 21-methoxy-17α-acetoxy-11β-(4 N,N-dimethylaminophenyl)-19-norpregna-4,9-diene-3,20-dione]
estrogenic, androgenic, anti-estrogenic, and anti-androgenic activities [1]: lack estrogenic, androgenic, anti-estrogenic, and anti-androgenic activities
mean score for intensity of pain on a bad day (scale 0-10) ([2]; baseline): 6.3
score for intensity of pain on a bad day (scale 0-10) ([2]; month six, 12.5 mg/day): 2.0
score for intensity of pain on a bad day (scale 0-10) ([2]; month six, 25 mg/day): 2.8
score for intensity of pain on a bad day (scale 0-10) ([2]; month six, 50 mg/day): 0.6
score for intensity of pain on a bad day (scale 0-10) ([2]; month three, 12.5 mg/day): 3.7
score for intensity of pain on a bad day (scale 0-10) ([2]; month three, 25 mg/day): 3.2
score for intensity of pain on a bad day (scale 0-10) ([2]; month three, 50 mg/day): 1.6
pain free days over the 180 day treatment period ([2]; women, 12.5 mg/day oral): 115.9 days
pain free days, percent ([2]; women, 12.5 mg/day oral): 66%
pain free days over the 180 day treatment period ([2]; women, 25 mg/day oral): 133.6 days
pain free days, percent ([2]; women, 25 mg/day oral): 75%
days of pain over the first three months ([2]; women, 50 mg/day oral): less than 1 day
pain free days over the 180 day treatment period ([2]; women, 50 mg/day oral): 170 days
pain free days, percent ([2]; women, 50 mg/day oral): 96%

— US20090118253A1, “COMPOSITIONS AND METHODS FOR TREATING DYSFUNCTIONAL UTERINE BLEEDING” (REPROS THERAPEUTICS INC., priority 2007, published 2009)
